Laboratory results: the NIST ThermoML archive (doi:10.1021/acs.jced.8b00975)

Experiment: xn = mol fraction of the nth substance listed
Details: Liquid, Vibrating tube method

C=C(C)C(=O)OCCN(C)C [2-(dimethylamino)ethyl methylpropenoate] + CO
mass density [kg/m3]
Details | 100 kPa | 5000 kPa | 10000 kPa | 15000 kPa | 30000 kPa | 35000 kPa
293.15 K, x1 = 0.0227 | – | – | – | – | 831.04 | 834.64
293.15 K, x1 = 0.0807 | – | – | – | – | 860.86 | 864.36
293.15 K, x1 = 0.1196 | – | – | – | – | 875.62 | 878.97
293.15 K, x1 = 0.2003 | – | – | – | – | 898.5 | 901.87
293.15 K, x1 = 0.3189 | – | – | – | – | 919.46 | 922.7
293.15 K, x1 = 0.4003 | – | – | – | – | 928.92 | 932.12
293.15 K, x1 = 0.4502 | – | – | – | – | 933.44 | 936.53
293.15 K, x1 = 0.4914 | – | – | – | – | 936.47 | 939.66
293.15 K, x1 = 0.5451 | – | – | – | – | 939.88 | 943.07
293.15 K, x1 = 0.6446 | – | – | – | – | 944.62 | 947.8
293.15 K, x1 = 0.6899 | – | – | – | – | 946.23 | 949.4
293.15 K, x1 = 0.8265 | – | – | – | – | 950.41 | 953.56
293.15 K, x1 = 0.8957 | – | – | – | – | 951.92 | 955.03
293.15 K, x1 = 0.9213 | – | – | – | – | 952.32 | 955.5
293.15 K, x1 = 0.977 | – | – | – | – | 953.08 | 956.32
303.15 K, x1 = 0.0301 | 802.01 | 806.85 | 811.37 | 815.62 | – | –
303.15 K, x1 = 0.0604 | 818.68 | 823.37 | 827.77 | 831.91 | – | –
303.15 K, x1 = 0.1003 | 836.41 | 840.87 | 845.1 | 849.12 | – | –
303.15 K, x1 = 0.1894 | 864.5 | 868.73 | 872.74 | 876.58 | – | –
303.15 K, x1 = 0.3009 | 886 | 890.03 | 893.92 | 897.69 | – | –
303.15 K, x1 = 0.4011 | 898.17 | 902.15 | 905.98 | 909.67 | – | –
303.15 K, x1 = 0.4497 | 902.64 | 906.61 | 910.42 | 914.09 | – | –
303.15 K, x1 = 0.5004 | 906.39 | 910.32 | 914.1 | 917.76 | – | –
303.15 K, x1 = 0.5484 | 909.57 | 913.52 | 917.31 | 920.96 | – | –
303.15 K, x1 = 0.6026 | 912.38 | 916.33 | 920.1 | 923.74 | – | –
303.15 K, x1 = 0.701 | 916.45 | 920.39 | 924.17 | 927.81 | – | –
303.15 K, x1 = 0.7881 | 919.15 | 923.04 | 926.8 | 930.44 | – | –
303.15 K, x1 = 0.897 | 921.41 | 925.26 | 929.01 | 932.67 | – | –
303.15 K, x1 = 0.9286 | 922.08 | 926.03 | 929.81 | 933.47 | – | –
303.15 K, x1 = 0.961 | 922.67 | 926.57 | 930.33 | 933.98 | – | –
